The values that follow come from patent US8895261B2, “Use of fluorescent saccharide-based derivative” (I-Shou University, priority 2012, dated 2014).

For this assay, the system named is fibroblast 3T3 cells. The assay can be described thus: Cellular uptake of fluorescent saccharide-based derivative in fibroblast 3T3 cells (fluorescence microscopy). The assay is classed as cell-based. Conditions: 100 μl of 0.5 mg/ml added to 3T3 cells, reacting overnight; FIG. 2G. The procedure:
1. Cultivate the fibroblast 3T3 cells in a DMEM medium (the DMEM medium contains 10% fetal bovine serum, 5 mM pyruvic acid, and antibiotics). The cells are cultivated in an incubator containing 5% CO2.
2. When the cells grow and occupy 80% of the bottom of the culture flask through cell division, suck out the culture medium and wash with 1×PBS, then add 0.05% trypsin to react for 1 minute in order to separate the cells, and add 5 ml culture medium, then centrifuge with […] for 10 minutes.
3. After centrifugation, remove the supernatant, then add 5 ml of culture medium, and evenly mix the cells and the culture medium. Take 30 μl of the cell solution and mix with 270 μl of trypan blue, then take 100 μl and place on a cytometer, and count the cell number using erythrocytomertry.
4. After counting the cells, adjust the cell number to 1×10^4 cells/ml, and take 1 ml of the cells and plant into a 24-well culture plate containing a glass slide, then place the cells in a cell incubator at 37° C. and 5% CO2. Incubate for 1 day, and then add 100 μl of 0.5 mg/ml glucosylglycine. After reacting overnight, wash twice with 1×PBS (10 minutes/turn).
5. Add 4% paraformaldehyde to the culture plate, and place in room temperature for twenty minutes to fix the cells, then remove the paraformaldehyde and wash 3 times with 1×PBS (10 minutes/turn).
6. […]

With `O=C(O)CNC1O[C@H](CO)[C@@H](O)[C@H](O)[C@H]1O` (stereo partly drawn) [glucosylglycine, D-glucosylglycine], the “cell uptake (cells emit fluorescence after being fed)” value was “uptakable by cells”.
